# Source: patent US6486164B2, “6-(4-arylalkylpiperazin-1-yl) benzodioxane and 6-(4-arylalkylpiperazin-1-yl) chromane derivatives: dopamine receptor subtype specific ligands” (Neurogen Corporation, priority 1998, dated 2002)
# Where a name gives a salt, the structure may show the parent alone. Read-outs that look alike come from different tables or passages of the source.
# How the values were obtained:
# D2 receptors from human = biological target: T1, D2 receptors from human (Homo sapiens, UniProt P14416); assay: D2 receptor binding assay (3H-YM 09151-2 displacement)
# T1 construct: expressed in transfected cells; host or cells: COS cells
# T1 sequence (P14416 whole entry): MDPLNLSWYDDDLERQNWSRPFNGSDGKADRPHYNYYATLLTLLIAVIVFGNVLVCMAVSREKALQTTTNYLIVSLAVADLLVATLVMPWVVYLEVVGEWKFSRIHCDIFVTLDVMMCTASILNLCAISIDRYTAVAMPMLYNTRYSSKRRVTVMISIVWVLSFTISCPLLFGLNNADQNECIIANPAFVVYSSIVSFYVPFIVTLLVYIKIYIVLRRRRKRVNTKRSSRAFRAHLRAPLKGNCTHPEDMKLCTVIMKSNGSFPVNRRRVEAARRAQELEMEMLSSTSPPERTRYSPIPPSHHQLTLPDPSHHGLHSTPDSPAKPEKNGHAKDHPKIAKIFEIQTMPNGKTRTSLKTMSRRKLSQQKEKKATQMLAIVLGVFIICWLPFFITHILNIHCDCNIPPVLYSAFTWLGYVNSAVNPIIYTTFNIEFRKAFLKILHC
# Procedure: (§1) Pellets of COS cells containing recombinantly produced D2, D3 or D4 receptors from human are used for the assays. The sample is homogenized in 100 volumes (w/vol) of 0.05 M Tris HCl buffer at 4° C. and pH 7.4. The sample is then centrifuged at 30,000×g and resuspended and rehomogenized. The sample is then centrifuged as described and the final tissue sample is frozen until use. The tissue is resuspended 1:20 (wt/vol) in 0.05 M Tris HCl buffer containing 100 mM NaCl.
# D3 receptors from human = biological target: T2, D3 receptors from human (Homo sapiens, UniProt P35462); assay: D3 receptor binding assay (3H-YM 09151-2 displacement)
# T2 construct: expressed in transfected cells; host or cells: COS cells
# T2 sequence (P35462 whole entry): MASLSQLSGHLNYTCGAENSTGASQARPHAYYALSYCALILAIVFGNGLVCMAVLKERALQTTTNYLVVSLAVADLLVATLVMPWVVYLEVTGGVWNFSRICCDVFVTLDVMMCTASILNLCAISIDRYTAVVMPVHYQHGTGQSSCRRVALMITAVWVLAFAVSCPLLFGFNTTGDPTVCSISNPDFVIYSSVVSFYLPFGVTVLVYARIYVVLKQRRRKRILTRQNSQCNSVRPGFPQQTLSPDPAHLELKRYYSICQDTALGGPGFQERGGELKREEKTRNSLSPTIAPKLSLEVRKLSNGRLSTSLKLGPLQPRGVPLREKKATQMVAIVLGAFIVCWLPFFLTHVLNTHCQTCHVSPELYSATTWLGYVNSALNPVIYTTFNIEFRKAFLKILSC
# Procedure: as §1
# D4 receptors from human = biological target: T3, D4 receptors from human (Homo sapiens, UniProt P21917); assay: D4 receptor binding assay (3H-YM 09151-2 displacement)
# T3 construct: expressed in transfected cells; host or cells: COS cells
# T3 sequence (P21917 1-419): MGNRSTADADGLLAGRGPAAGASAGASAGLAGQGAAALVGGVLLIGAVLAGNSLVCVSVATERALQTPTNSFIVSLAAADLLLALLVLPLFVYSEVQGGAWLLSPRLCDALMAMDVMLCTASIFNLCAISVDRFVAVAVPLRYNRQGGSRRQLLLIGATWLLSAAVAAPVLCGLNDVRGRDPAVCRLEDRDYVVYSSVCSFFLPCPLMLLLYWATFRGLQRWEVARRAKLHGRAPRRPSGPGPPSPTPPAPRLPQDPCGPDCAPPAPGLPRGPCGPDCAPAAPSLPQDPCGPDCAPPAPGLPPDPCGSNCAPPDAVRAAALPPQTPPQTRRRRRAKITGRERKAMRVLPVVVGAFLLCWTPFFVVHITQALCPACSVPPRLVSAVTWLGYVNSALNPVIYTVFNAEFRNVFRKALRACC
# Procedure: as §1
# [1] = recombinant human receptor in COS cells, 0.5 nM 3H-YM 09151-2, read-out: D2 Ki
# [2] = recombinant human receptor in COS cells, 0.5 nM 3H-YM 09151-2, read-out: D3 Ki
# [3] = recombinant human receptor in COS cells, 0.5 nM 3H-YM 09151-2, read-out: D4 Ki
molecule,measurement,setting,value
Cl.c1ccc(CN2CCN(c3ccc4c(c3)OCCO4)CC2)cc1,melting point,,143 to 145 °C
Cc1ccc(CN2CCN(c3ccc4c(c3)OCCO4)CC2)cc1.O=C(O)C(=O)O,melting point,,200 to 201 °C
COc1ccc(CN2CCN(c3ccc4c(c3)OCCO4)CC2)cc1.O=C(O)C(=O)O,melting point,,193 to 195 °C
Clc1cccc(CN2CCN(c3ccc4c(c3)OCCO4)CC2)c1.O=C(O)C(=O)O,melting point,,213 to 215 °C
Clc1ccccc1CN1CCN(c2ccc3c(c2)OCCO3)CC1.O=C(O)C(=O)O,melting point,,175 °C
COc1ccccc1CN1CCN(c2ccc3c(c2)OCCO3)CC1.O=C(O)C(=O)O,melting point,,143 °C
1-(Chroman-6-yl)-4-(4-methylbenzyl)piperazine Oxalate [Compound 4],Ki,D2 receptors from human; [1],2.31 µM
same,Ki,D3 receptors from human; [2],2.99 µM
same,Ki,D4 receptors from human; [3],0.035 µM
"COc1cccc(CN2CCN(c3ccc4c(c3)OCCO4)CC2)c1 (as salt: oxalate) [Compound 2, 1-(1,4-benzodioxan-6-yl)-4-(3-methoxybenzyl)piperazine oxalate]",melting point,,213 to 215 °C
"Clc1ccc(CN2CCN(c3ccc4c(c3)OCCO4)CC2)cc1 (as salt: oxalate) [Compound 3, 1-(1,4-benzodioxan-6-yl)-4-(4-chlorobenzyl)piperazine oxalate]",melting point,,213 to 215 °C
"Fc1ccc(CN2CCN(c3ccc4c(c3)OCCO4)CC2)cc1 [Compound 1, 1-(1,4-Benzodioxan-6-yl)-4-(4-fluorobenzyl)piperazine Oxalate]",Ki,D2 receptors from human,> 4 µM
same,Ki,D3 receptors from human,3.66 µM
same,Ki,D4 receptors from human,0.011 µM
"COc1cccc(CN2CCN(c3ccc4c(c3)OCCO4)CC2)c1 [Compound 2, 1-(1,4-benzodioxan-6-yl)-4-(3-methoxybenzyl)piperazine oxalate]",Ki,D2 receptors from human; [1],2.59 µM
same,Ki,D3 receptors from human; [2],2.57 µM
same,Ki,D4 receptors from human; [3],0.037 µM
"Clc1ccc(CN2CCN(c3ccc4c(c3)OCCO4)CC2)cc1 [Compound 3, 1-(1,4-benzodioxan-6-yl)-4-(4-chlorobenzyl)piperazine oxalate]",Ki,D2 receptors from human,> 4 µM
same,Ki,D3 receptors from human,2.63 µM
same,Ki,D4 receptors from human,0.025 µM
